Test results from PubChem BioAssay (NCI).
Several values for one entry are separate records, joined by “and”; a condition that tells them apart may be missing. Identical values can stand only once.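 The compound was tested at five concentrations on cells cultured in 96-well plates, with a 48-hour exposure period. At the GI50, growth is halved. TGI denotes the concentration required for complete inhibition of growth.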

What was measured:
Test in all cases: DTP human tumour cell line panel, 48 h
MALME-3M melanoma = tested on: MALME-3M melanoma
COLO 205 colon = tested on: COLO 205 colon
OVCAR-4 ovarian = tested on: OVCAR-4 ovarian
MOLT-4 leukemia = tested on: MOLT-4 leukemia
MDA-MB-231 breast = tested on: MDA-MB-231 breast
SW-620 colon = tested on: SW-620 colon
SF-295 CNS = tested on: SF-295 CNS
CCRF-CEM leukemia = tested on: CCRF-CEM leukemia
LOX IMVI melanoma = tested on: LOX IMVI melanoma
U251 CNS = tested on: U251 CNS

| Compound | TGI (MALME-3M melanoma) | TGI (COLO 205 colon) | TGI (OVCAR-4 ovarian) | TGI (MOLT-4 leukemia) | TGI (MDA-MB-231 breast) | TGI (SW-620 colon) | TGI (SF-295 CNS) | TGI (CCRF-CEM leukemia) | TGI (LOX IMVI melanoma) | TGI (U251 CNS) | GI50 (MALME-3M melanoma) | GI50 (COLO 205 colon) | GI50 (OVCAR-4 ovarian) | GI50 (MOLT-4 leukemia) | GI50 (MDA-MB-231 breast) | GI50 (SW-620 colon) | GI50 (SF-295 CNS) | GI50 (CCRF-CEM leukemia) | GI50 (LOX IMVI melanoma) | GI50 (U251 CNS) |
| --- | --- | --- | --- | --- | --- | --- | --- | --- | --- | --- | --- | --- | --- | --- | --- | --- | --- | --- | --- | --- |
| COc1ccc(NC2=CC(=O)C(=O)c3ccccc32)nn1 | 1.96 µM | 3.21 µM | 2.79 µM | 1.76 µM | 34.8 µM | 3.4 µM | 2.15 µM | > 100 µM | 4.14 µM | 12.4 µM | – | – | – | – | – | – | – | – | – | – |
| COc1ccc(-c2cc(=O)c3c(OC)c(OC)c(OC)cc3o2)cc1 | > 100 µM | 51.7 µM | > 100 µM | > 100 µM | > 100 µM | > 100 µM | 96.9 µM | 74 µM | 81.5 µM | > 100 µM | – | – | – | – | – | – | – | – | – | – |
| O=C1c2cc(Cl)ccc2S(=O)(=O)c2c(NCCCNCCO)nc3ccccc3c21 | 2.56 µM | 2.35 µM | 2.18 µM | 5.63 µM | 2.94 µM | 1.71 µM | 12.4 µM | 2.74 µM | 2.95 µM | 3.18 µM | 1.19 µM | 1.01 µM | 0.985 µM | 1.82 µM | 1.49 µM | 0.444 µM | 3.26 µM | 0.648 µM | 1.58 µM | 1.62 µM |
| C[C@@H]1OC(O)[C@@H](F)[C@H](O)[C@@H]1O (stereo not given in full) | > 100 µM | > 100 µM | > 100 µM | > 100 µM | > 100 µM | > 100 µM | > 100 µM | > 100 µM | > 100 µM | > 100 µM | > 100 µM | > 100 µM | > 100 µM | > 100 µM | > 100 µM | > 100 µM | > 100 µM | > 100 µM | > 100 µM | > 100 µM |
| CC[C@@H]1C(=O)N(C)c2cnc(Nc3ccc(C(=O)NC4CCN(C)CC4)cc3OC)nc2N1C1CCCC1 | 2.57 µM and 3.39 µM | 0.111 µM | 9.87 µM and 4.4 µM | 1.39 µM and 0.579 µM | 3.21 µM | > 10 µM and 3.1 µM | > 10 µM and 15 µM | 2.9 µM and 1.26 µM | 1.33 µM and 1.53 µM | > 10 µM and 7.79 µM | 1.12 µM and 1.37 µM | 0.00326 µM and < 0.01 µM | 0.303 µM and 0.163 µM | 0.00387 µM and < 0.01 µM | 0.00552 µM | 0.00299 µM and < 0.01 µM | 0.0147 µM and 0.0189 µM | 0.00236 µM and < 0.01 µM | 0.00414 µM and < 0.01 µM | 0.00492 µM and < 0.01 µM |
| Oc1c(CN2CCC(N3CCCCC3)CC2)cc(Cc2cc(CN3CCC(N4CCCCC4)CC3)c(O)c3ncccc23)c2cccnc12 | 4.26 µM | 1.94 µM | 13.6 µM | 6.22 µM | 14.4 µM | 15.1 µM | 3.58 µM | 3.51 µM | 2.89 µM | 13.6 µM | 1.79 µM | 0.372 µM | 0.435 µM | 0.3 µM | 0.329 µM | 0.726 µM | 1.64 µM | 0.403 µM | 0.62 µM | 0.835 µM |
| Cn1c(=O)c2[nH]c(SCc3ccccn3)nc2n(C)c1=S | > 100 µM | > 100 µM | > 100 µM | > 100 µM | > 100 µM | > 100 µM | > 100 µM | > 100 µM | > 100 µM | > 100 µM | – | – | – | – | – | – | – | – | – | – |
| CN1CCN(C)C12C=c1ccccc1=CC21CC1 | 59 µM | 25.6 µM | > 100 µM | 54.8 µM | > 100 µM | 48.3 µM | > 100 µM | 58.2 µM | 90 µM | > 82 µM | – | – | – | – | – | – | – | – | – | – |
| CN1CCN(C(=O)OCc2nc3c(N4CCOCC4)nc(Cl)nc3n2C)CC1 | 2.87 µM | 4.1 µM | 2.27 µM | 4.69 µM | 2.22 µM | 1.83 µM | 20.7 µM | 1.78 µM | 1.99 µM | 3.39 µM | 1.5 µM | 1.44 µM | 1.06 µM | 1.19 µM | 0.566 µM | 0.484 µM | 8.35 µM | 0.313 µM | 0.579 µM | 1.52 µM |
| Cn1c2ccccc2c2c(-c3ccccc3)[n+]3ccncc3nc21 | > 100 µM | > 100 µM | > 100 µM | > 100 µM | > 100 µM | > 100 µM | > 100 µM | > 100 µM | > 100 µM | > 100 µM | 93.8 µM | 29.5 µM | > 100 µM | > 100 µM | > 100 µM | > 100 µM | > 100 µM | 89.4 µM | > 100 µM | 47.4 µM |
| CC(=O)OCCN1c2ccccc2Sc2cnccc21 | > 10 µM | > 10 µM | > 10 µM | > 10 µM | > 10 µM | > 10 µM | > 10 µM | > 10 µM | > 10 µM | > 10 µM | – | – | – | – | – | – | – | – | – | – |
| O=c1[nH]ncc(Br)c1Br | 3.71 µM | 3.32 µM | 3.08 µM | 5.19 µM | 3.56 µM | 3.07 µM | 22.5 µM | 5.35 µM | 3.06 µM | 3.02 µM | 1.81 µM | 1.91 µM | 1.71 µM | 2.41 µM | 1.68 µM | 1.7 µM | 8.8 µM | 2.16 µM | 1.65 µM | 1.66 µM |
| COc1cc([N+](=O)[O-])cc2c3c(n(C)c12)[C@@]1(C)CCC2c4ccc(OCc5ccccc5)cc4CCC2C1C3 (stereo not given in full) | > 100 µM | > 100 µM | > 100 µM | > 100 µM | > 100 µM | > 100 µM | > 100 µM | > 100 µM | > 100 µM | > 100 µM | > 100 µM | 29.3 µM | 61.6 µM | > 100 µM | 62.6 µM | 90.6 µM | 35 µM | > 100 µM | 65 µM | 37.5 µM |
| O=C(/C(Br)=C/c1ccccc1)c1ccccc1 | 3.9 µM | 2.41 µM | 16.9 µM | 6.95 µM | 5.12 µM | 3.9 µM | 25.9 µM | 2.01 µM | 1.59 µM | 4.4 µM | 1.75 µM | 1.09 µM | 3.79 µM | 2.23 µM | 2.44 µM | 1.63 µM | 11.8 µM | 0.39 µM | 0.433 µM | 1.83 µM |
